Assay results: patent US20160115540A1, “PRODRUGS AND DRUGS” (Biogen MA Inc., priority 2013, published 2016)
Where a name gives a salt, the structure may show the parent alone.

Tested on: jejunum
Test: Transcriptional profiling on Affymetrix GeneChips, single dose, naïve mice: jejunum
Type: in vivo, C57BL/6 mice
Conditions: 100MMF-vs-Veh
Experimental: Treated mice were sacrificed at 2, 7, or 12 hours. Tissues (liver, spleen, kidney, jejunum, cortex, hippocampus, striatum and whole blood) were collected and analyzed by transcriptional profiling on mouse Affymetrix GeneChips.
Tissues (liver, spleen, kidney, jejunum, cortex, hippocampus, striatum and whole blood) were collected and analyzed by transcriptional profiling on mouse Affymetrix GeneChips.
Animals were exposed to CO2 and whole blood collected via cardiac puncture. Two 100 μl aliquots of whole blood were collected in 1.5 mL microcentrifuge tubes and snap frozen in liquid nitrogen. Peripheral (liver, spleen, kidney and jejunum) and CNS brain (cerebellum, hippocampus, striatum and cortex) tissues were harvested and snap frozen in liquid nitrogen, with special care taken to collect tissues of similar size and from the same location. All samples were stored at −80° C. until RNA extraction was conducted.
For RNA preparation, frozen tissues were placed in 2 mL RNAse-free 96-well blocks with 1.5 mL QIAzol Lysis Reagent (QIAgen) and a 3.2 mm stainless steel bead (BioSpec Products, Bartlesville, Okla.). Tissues were disrupted for four cycles of 45 seconds in a Mini-Beadbeater (Biospec Products). RNA was extracted in chloroform and the aqueous phase was mixed with an equal volume of 70% ethanol. Extracted RNA was applied to RNeasy 96 plates and purified by the spin method according to the manufacturer's protocol (RNeasy 96 Universal Tissue Protocol, QIAgen, Hilden Germany).
Automated sample amplifications and biotin labelings were carried out using the NuGEN Ovation RNA Amplification system V2 (Cat #3100), Ovation WB reagent (Cat #1300) and Encore Biotin module (Cat #4200) (NuGEN Technologies, Inc, San Carlos, Calif.) according to manufacturer's recommendations using an Arrayplex automated liquid handler (Beckman Coulter, Indianapolis, Ind.). Two micrograms of biotin labeled sscDNA probe were hybridized to Affymetrix GeneChip Affymetrix HT_MG-430_PM plate arrays with modified conditions as described in Allaire et al. Washing and staining of the hybridized arrays were completed as described in the GeneChip Expression analysis technical manual for HT plate arrays using the Genechip® Array Station (Affymetrix, Santa Clara, Calif.) with modifications as described in Allaire et al. The processed GeneChip® plate arrays were scanned using GeneTitan scanner (Affymetrix, Santa Clara, Calif.).
Affymetrix scans were subject to quality control (QC) measures. These tests included a visual inspection of the distribution of raw signal intensities and an assessment of RNA degradation, relative log expression (RLE), and normalized unsealed standard error (NUSE). All sample scans that passed these QC metrics were included in the analysis.
All CEL files were subjected to GC-content-based Robust Multi-array Average (GCRMA) normalization (version 2.20.0) (Irizarry R A, et al. Nucleic Acids Res 2003; 31:e15; Li C, et al. Genome Biol 2001; 2:[…]0032). Expression levels were log (base 2) transformed.
All calculations and analyses were carried out using R (version 2.11.1) and Bioconductor computational tools (Gentleman R. Springer Science+Business Media 2005).

## COC(=O)/C=C/C(=O)O [MMF, monomethyl fumarate]
2 h
  FC Slc2a1 (1426599_PM_a_at): 1.53
  FC Slc2a1 (1426600_PM_at): 1.68
  FC Slc40a1 (1417061_PM_at): 2.73
  FC Slc48a1 1450410_PM_a_at: 1.62
  FC Slfn2 (1450165_PM_at): −1.82
  FC Srxn1 (1425351_PM_at): 1.77
  FC St3gal6 (1449078_PM_at): 1.52
  FC Tkt (1436605_PM_at): 1.73
  FC Tnfaip3 1433699_PM_at: −1.67
  FC Tox3 (1436600_PM_at): 1.81
  FC Ugt2b5 (1419622_PM_at): 3.13
  FC Ugt2b35 (1439624_PM_at): 3.08
7 h
  FC 1110020G09Rik (1437287_PM_at): 1.74
  FC 1447411_PM_at: 1.97
  FC 9130221J17Rik (1443159_PM_at): 1.61
  FC 9430069I07Rik (1431672_PM_at): 3.66
  FC Abcc2 (1450109_PM_s_at): 1.51
  FC Abcc3 (1428988_PM_at): 2.26
  FC Acsm5 (1437662_PM_at): 1.71
  FC Acss2 (1446542_PM_at): 2.06
  FC Akr1b8 (1448894_PM_at): 14.16
  FC Akr1c12 (1450455_PM_s_at): 1.58
  FC Akr1c13 (1418672_PM_at): 1.86
  FC Akr1c19 (1455454_PM_at): 2.39
  FC Aldh1a7 (1418601_PM_at): 1.86
  FC Areg (1421134_PM_at): 2.93
  FC Asns 1451095_PM_at: 1.60
  FC Blvrb (1451386_PM_at): 1.55
  FC Capn13 (1437960_PM_at): −1.75
  FC Cbr1 (1460196_PM_at): 1.83
  FC Cbr3 (1427912_PM_at): 40.98
  FC Ces1e (1419510_PM_at): 2.44
  FC Ces1f (1424266_PM_s_at): 5.19
  FC Ces1g (1449486_PM_at): 9.24
  FC Ddc (1426215_PM_at): 2.03
  FC Dppa5a (1416552_PM_at): 1.88
  FC Enkur (1428960_PM_at): −1.56
  FC Entpd5 (1451765_PM_a_at): 1.60
  FC Esd (1438488_PM_at): 2.15
  FC Fam162a (1451385_PM_at): 1.67
  FC G6pd2 (1422327_PM_s_at): 2.06
  FC G6pdx (1448354_PM_at): 1.76
  FC Gclc (1424296_PM_at): 2.87
  FC Gclc (1455959_PM_s_at): 2.48
  FC Gm14446 (1435529_PM_at): −1.65
  FC Gpx2 (1449279_PM_at): 1.53
  FC Gsr (1421816_PM_at): 3.13
  FC Gss (1441931_PM_x_at): 2.20
  FC Gss (1448273_PM_at): 2.25
  FC Gsta2 (1421040_PM_a_at): 9.84
  FC Gsta2 (1421041_PM_s_at): 1.90
  FC Gsta3 (1423436_PM_at): 5.71
  FC Gsta3 (1423437_PM_at): 5.75
  FC Gstm1 (1416416_PM_x_at): 3.95
  FC Gstm1 (1425627_PM_x_at): 4.80
  FC Gstm1 (1448330_PM_at): 4.23
  FC Gstm2 (1416411_PM_at): 2.09
  FC Gstm3 (1427473_PM_at): 3.46
  FC Gstm3 (1427474_PM_s_at): 1.99
  FC Gstm4 (1424835_PM_at): 5.75
  FC Gstm6 (1422072_PM_a_at): 2.23
  FC Gstm7 (1419072_PM_at): 1.97
  FC Htatip2 (1451814_PM_a_at): 1.68
  FC Ifit1 (1450783_PM_at): −1.95
  FC Matn2 (1419442_PM_at): 1.59
  FC Matn2 (1455978_PM_a_at): 2.21
  FC Me1 (1416632_PM_at): 2.01
  FC Nqo1 (1423627_PM_at): 2.63
  FC Pgd 1423706_PM_a_at: 1.55
  FC Pgm2 (1451149_PM_at): 1.54
  FC Pir (1429001_PM_at): 5.12
  FC Prss8 (1418320_PM_at): 1.75
  FC Rsad2 (1421009_PM_at): −1.84
  FC Rsad2 (1436058_PM_at): −1.81
  FC Rtp4 (1418580_PM_at): −1.61
  FC Setd4 (1425239_PM_at): 2.27
  FC Setd4 (1435405_PM_at): 1.76
  FC Setd4 (1460373_PM_a_at): 1.77
  FC Slc5a4b (1422757_PM_at): 1.79
  FC Slc35e3 (1428805_PM_at): 1.67
  FC Txnrd1 (1424486_PM_a_at): 2.07
  FC Txnrd1 (1424487_PM_x_at): 1.93
  FC Ugt2b5 (1419622_PM_at): 4.50
  FC Ugt2b35 (1439624_PM_at): 3.31
  FC Ugt2b36 (1455595_PM_at): 2.50
12 h
  FC Acss2 (1446542_PM_at): 1.52
